Experimental data taken from PMC4042574, “Phenolic Lipids Affect the Activity and Conformation of Acetylcholinesterase from Electrophorus electricus (Electric eel)” (Nutrients, 2014).
Like-named read-outs stand apart in the source and are kept apart here.

Biological target: acetylcholinesterase (AChE) from Electrophorus electricus (electric eel) (Electrophorus electricus, UniProt O42275)
Assay: Ellman assay, […] nm
Format: biochemical

Sequence of acetylcholinesterase (AChE) from Electrophorus electricus (electric eel) (O42275 24-633): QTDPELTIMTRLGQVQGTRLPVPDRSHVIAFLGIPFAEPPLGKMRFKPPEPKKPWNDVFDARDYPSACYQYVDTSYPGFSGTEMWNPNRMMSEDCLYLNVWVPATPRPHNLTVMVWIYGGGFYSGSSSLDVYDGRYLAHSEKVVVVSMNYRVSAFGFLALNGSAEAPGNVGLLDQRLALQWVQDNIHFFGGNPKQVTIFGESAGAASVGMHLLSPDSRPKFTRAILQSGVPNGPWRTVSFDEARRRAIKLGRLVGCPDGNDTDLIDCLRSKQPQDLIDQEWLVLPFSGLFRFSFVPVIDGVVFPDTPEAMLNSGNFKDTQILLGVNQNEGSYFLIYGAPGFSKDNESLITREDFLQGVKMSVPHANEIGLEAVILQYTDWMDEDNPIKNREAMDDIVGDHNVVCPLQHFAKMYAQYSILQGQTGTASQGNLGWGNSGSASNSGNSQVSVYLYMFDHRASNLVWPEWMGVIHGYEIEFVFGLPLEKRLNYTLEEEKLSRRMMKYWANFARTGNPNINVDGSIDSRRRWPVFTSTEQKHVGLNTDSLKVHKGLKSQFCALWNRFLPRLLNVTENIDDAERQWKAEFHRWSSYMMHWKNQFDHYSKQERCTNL

Molecule: CCCCCCCCCCCCCCCc1cc(O)cc(O)c1 [AR 15:0]
- IC50: > 94 µM

Molecule: CCCCCCCCCCCCCCCCCCCc1cc(O)cc(O)c1 [AR 19:0]
- IC50: 77 ± 1.25 µM

Molecule: CCCCCCCCCCCCCCCCCCCCCc1cc(O)cc(O)c1 [AR 21:0]
- IC50: 44 ± 0.47 µM

Molecule: CCCCCCCCCCCCCCCCCCCCCCCCCc1cc(O)cc(O)c1 [AR 25:0]
- IC50: 44 ± 4.24 µM

Molecule: Cardol
- IC50 (acetylthiocholine iodide (0.476 μM as printed), pH 8.0, 37 °C, 5 min pre-incubation): 3.5 ± 0.2 µM
